Biological target: Vps34 (Homo sapiens, UniProt Q8NEB9)
Test: ELISA assay of Vps34 kinase activity
Assay type: biochemical
Details: Fig. S4

Vps34, sequence (Q8NEB9 whole entry): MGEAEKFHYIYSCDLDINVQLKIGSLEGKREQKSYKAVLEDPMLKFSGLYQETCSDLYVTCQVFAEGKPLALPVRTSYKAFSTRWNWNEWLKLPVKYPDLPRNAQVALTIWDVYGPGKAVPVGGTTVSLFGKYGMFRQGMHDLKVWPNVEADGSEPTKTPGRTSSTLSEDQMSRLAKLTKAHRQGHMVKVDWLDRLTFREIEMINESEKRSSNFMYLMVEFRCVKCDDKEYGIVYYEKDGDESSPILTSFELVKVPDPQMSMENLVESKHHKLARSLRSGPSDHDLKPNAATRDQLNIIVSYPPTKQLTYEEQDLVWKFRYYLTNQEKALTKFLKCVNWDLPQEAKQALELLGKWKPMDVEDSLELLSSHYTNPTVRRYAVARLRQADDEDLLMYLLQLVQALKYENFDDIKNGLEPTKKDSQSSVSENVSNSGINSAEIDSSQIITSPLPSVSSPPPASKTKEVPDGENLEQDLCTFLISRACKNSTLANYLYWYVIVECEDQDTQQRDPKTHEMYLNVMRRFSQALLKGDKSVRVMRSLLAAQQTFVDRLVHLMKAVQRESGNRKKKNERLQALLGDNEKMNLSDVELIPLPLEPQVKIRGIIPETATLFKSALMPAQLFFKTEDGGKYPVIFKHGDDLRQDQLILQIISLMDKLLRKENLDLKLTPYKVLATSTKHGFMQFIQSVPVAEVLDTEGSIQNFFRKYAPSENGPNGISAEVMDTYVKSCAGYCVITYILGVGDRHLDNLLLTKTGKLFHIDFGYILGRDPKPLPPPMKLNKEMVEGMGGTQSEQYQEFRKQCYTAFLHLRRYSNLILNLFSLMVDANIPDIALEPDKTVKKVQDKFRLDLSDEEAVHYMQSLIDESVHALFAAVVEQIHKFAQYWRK

Vps34 inhibition of analogues, SAR (in words): abolishment of activity
Structure (SMILES): O=C1/C(=C/C=C/c2ccccc2)Oc2cc(O)ccc21 [1d]

Source: PMC6543056 (Acta Pharmaceutica Sinica. B, 2019)
